Literature values as cited in patent publication US9526803B2, “Diagnostic chewing gum for pathogens” (Julius-Maximilians-Universitaet Wuerzburg, priority 2012, dated 2016).
Structures can show the parent of a compound that is named as a salt.

Experiments:
[1] = system: human tongue; details: average human
[2] = system: gustatory system; details: reference for calibration of volunteers; bitter value 10,000 = 1 g in 10,000 mL water barely recognized as bitter

For `C=C[C@H]1C[N@@]2CC[C@H]1C[C@H]2[C@H](O)c1ccnc2ccc(OC)cc12` [Quinine sulfate], the “concentration sensed down to (taste recognition threshold)” value [1] is listed as 0.0004 mM.
In the case of `O=C1NS(=O)(=O)c2ccccc21` [saccharin], the “concentration sensed down to (taste recognition threshold)” value [1] is listed as 0.02 mM.
In the case of `C=C[C@H]1C[N@@]2CC[C@H]1C[C@H]2[C@H](O)c1ccnc2ccc(OC)cc12` [quinine-HCl], the bitter value [2] is listed as 200,000.
